Test [1] relates to EGFR Del19/T790M/C797S (H1975-clone #28). Briefly: EGFR degradation HTRF assay, H1975-clone #28 DTC cells. The format is cell-based. Put shortly:
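Read-out is an HTRF EGFR signal (337 nm excitation, 665/620 nm) from lysates of mutant-EGFR H1975 clones in which only the exogenous EGFR survives knockout. Treatment ran 16h at 37° C. from 10 uM final downward in 5-fold steps. DC50 comes from a logistic fit and Dmax is the maximal degradation.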
Background: TR-FRET usually uses a lanthanide donor and a delayed reading to cut background.

Test [2] deals with T1, EGFR L858R/T790M/C797S (BaF3-LTC cells) (Homo sapiens, UniProt P00533, C797S/L858R/T790M).
T1 construct: expressed in transfected cells; host or cells: BaF3
Briefly: EGFR degradation HTRF assay, BaF3-LTC cells. The format is cell-based. A digest of the protocol:
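Cells treated 16 h at 37 °C, 5% CO2 in medium with 0.2% DMSO; top final concentration 10 uM, 5-fold dilution, 8 doses. Lysates read by HTRF (665/620 nm); degradation % versus DMSO high control, DC50 from four-parameter fit, Dmax as maximal degradation.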

The mark [3] stands for this setting: H1975 # 28 DTC cells; maximum percentage of inhibition (degradation).
The mark [4] stands for this setting: read-out: DC50(nM) H1975 # 28 DTC; H1975 # 28 DTC cells; EGFR degradation, IC50 (DC50) from curve fit.
Where [5] appears, read: read-out: DC50(nM) BaF3-LTC; BaF3-LTC cells; EGFR degradation, IC50 (DC50) from curve fit.
Where [6] appears, read: read-out: Dmax (%) BaF3-LTC, BaF3-LTC cells; maximum percentage of inhibition (degradation).
[7] abbreviates: BaF3-LTC cells; EGFR degradation, IC50 (DC50) from curve fit; read-out: DC50(nM) BaF3-LTC.
[8] abbreviates: H1975 # 28 DTC cells; EGFR degradation, IC50 (DC50) from curve fit; read-out: DC50(nM) H1975 # 28 DTC.
[9] abbreviates: BaF3-LTC cells; maximum percentage of inhibition (degradation); read-out: Dmax (%) BaF3-LTC.

The structures appear in SMILES notation. Read-outs that look alike come from different tables or passages of the source.

By DC50 is commonly meant the concentration at which degradation of the target reaches its halfway point. The term Dmax denotes the largest share of the target that was removed.

T1 sequence (P00533 25-1210 T790M/C797S/L858R): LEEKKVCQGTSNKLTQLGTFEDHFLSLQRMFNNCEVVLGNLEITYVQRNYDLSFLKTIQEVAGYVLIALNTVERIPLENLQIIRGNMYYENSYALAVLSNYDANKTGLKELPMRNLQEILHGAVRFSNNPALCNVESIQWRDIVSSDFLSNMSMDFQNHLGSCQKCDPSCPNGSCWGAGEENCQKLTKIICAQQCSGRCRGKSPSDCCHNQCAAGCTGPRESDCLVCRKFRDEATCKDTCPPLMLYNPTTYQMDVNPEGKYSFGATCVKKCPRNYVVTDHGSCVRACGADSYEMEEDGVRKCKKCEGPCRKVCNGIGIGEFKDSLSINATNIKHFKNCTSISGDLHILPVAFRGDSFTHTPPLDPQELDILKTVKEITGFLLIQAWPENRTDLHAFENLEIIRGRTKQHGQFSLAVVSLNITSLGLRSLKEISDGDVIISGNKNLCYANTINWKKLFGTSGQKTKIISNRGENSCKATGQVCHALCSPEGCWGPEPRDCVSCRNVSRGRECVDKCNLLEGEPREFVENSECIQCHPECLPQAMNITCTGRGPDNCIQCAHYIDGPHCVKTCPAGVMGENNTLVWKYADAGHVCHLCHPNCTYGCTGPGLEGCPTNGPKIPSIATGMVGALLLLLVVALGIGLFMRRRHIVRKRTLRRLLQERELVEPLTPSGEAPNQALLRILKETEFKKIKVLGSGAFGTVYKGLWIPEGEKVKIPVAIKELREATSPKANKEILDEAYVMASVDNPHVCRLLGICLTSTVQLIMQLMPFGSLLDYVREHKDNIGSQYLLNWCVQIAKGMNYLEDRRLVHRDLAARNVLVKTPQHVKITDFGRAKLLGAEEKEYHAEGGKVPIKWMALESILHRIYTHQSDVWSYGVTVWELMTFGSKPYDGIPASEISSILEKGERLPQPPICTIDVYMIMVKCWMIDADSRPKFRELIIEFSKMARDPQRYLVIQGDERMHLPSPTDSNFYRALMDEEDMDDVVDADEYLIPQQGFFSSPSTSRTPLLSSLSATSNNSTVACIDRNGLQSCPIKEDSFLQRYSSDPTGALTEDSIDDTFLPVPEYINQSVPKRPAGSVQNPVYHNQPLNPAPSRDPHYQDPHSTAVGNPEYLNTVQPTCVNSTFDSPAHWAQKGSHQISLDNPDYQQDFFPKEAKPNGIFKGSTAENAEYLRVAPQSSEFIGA

Take `CCOc1cc(N2CCC(N3CCN(CCCc4cc(F)cc5c4oc(=O)n5C4CCC(=O)NC4=O)CC3)CC2)c(CC)cc1Nc1ncc(Br)c(Nc2ccc3nc(CC)ncc3c2P(C)(C)=O)n1` (stereo not shown) [Example 564, 3-(7-(3-(4-(1-(4-((5-bromo-4-((5-(dimethylphosphoryl)-2-ethylquinazolin-6-yl)amino)pyrimidin-2-yl)amino)-5-ethoxy-2-ethylphenyl)piperidin-4-yl)piperazin-1-yl)propyl)-5-fluoro-2-oxobenzo[d]oxazol-3(2H)-yl)piperidine-2,6-dione]: the “Dmax (%) H1975 # 28 DTC” value in test [1] (setting [3]) is reported as 81.87%. Moreover, the DC50 in test [1] (setting [4]) is 1.04 nM; in test [2] (setting [5]), 7.34 nM. Besides, in test [2] (setting [6]), the Dmax worked out at 93.9%.

Regarding `CCOc1cc(N2CCC(N3CCN(CCc4cc5oc(=O)n(C6CCC(=O)NC6=O)c5cc4F)CC3)CC2)c(CC)cc1Nc1ncc(Br)c(Nc2ccc3nc(CC)ncc3c2P(C)(C)=O)n1` (stereo not shown) [Example 565, 3-(6-(2-(4-(1-(4-((5-bromo-4-((5-(dimethylphosphoryl)-2-ethylquinazolin-6-yl)amino)pyrimidin-2-yl)amino)-5-ethoxy-2-ethylphenyl)piperidin-4-yl)piperazin-1-yl)ethyl)-5-fluoro-2-oxobenzo[d]oxazol-3(2H)-yl)piperidine-2,6-dione], the “Dmax (%) H1975 # 28 DTC” value in test [1] (setting [3]) came out at 74.32%. The DC50 in test [1] (setting [4]) came to 0.626 nM; in test [2] (setting [5]), 3.92 nM. For the same compound, in test [2] (setting [6]), the Dmax turned out to be 93.2%.

On to `CCOc1cc(N2CCC(N3CCN(CC4CN(c5cccc6c5oc(=O)n6C5CCC(=O)NC5=O)C4)CC3)CC2)c(CC)cc1Nc1ncc(Br)c(Nc2ccc3nc(CC)ncc3c2P(C)(C)=O)n1` (stereo not shown) [Example 566, 3-(7-(3-((4-(1-(4-((5-bromo-4-((5-(dimethylphosphoryl)-2-ethylquinazolin-6-yl)amino)pyrimidin-2-yl)amino)-5-ethoxy-2-ethylphenyl)piperidin-4-yl)piperazin-1-yl)methyl)azetidin-1-yl)-2-oxobenzo[d]oxazol-3(2H)-yl)piperidine-2,6-dione], for which the “Dmax (%) H1975 # 28 DTC” value in test [1] (setting [3]) came to 84.02%. For the same compound, the DC50 in test [1] (setting [4]) came to 0.616 nM; in test [2] (setting [7]), 5.25 nM.

For `CCOc1cc(N2CCC(N3CCN(CCCc4cc(F)c([C@H]5CCC(=O)NC5=O)c(F)c4)CC3)CC2)c(CC)cc1Nc1ncc(Br)c(Nc2cc(F)c3nc(CC)ccc3c2P(C)(C)=O)n1` [Example 567, (R)-3-(4-(3-(4-(1-(4-((5-bromo-4-((5-(dimethylphosphoryl)-2-ethyl-8-fluoroquinolin-6-yl)amino)pyrimidin-2-yl)amino)-5-ethoxy-2-ethylphenyl)piperidin-4-yl)piperazin-1-yl)propyl)-2,6-difluorophenyl)piperidine-2,6-dione], the half-maximal degradation concentration (DC50) came to 3.01 nM in test [1] (setting [8]) and 13.2 nM in test [2] (setting [7]). Moreover, in test [1] (setting [3]), the “Dmax (%) H1975 # 28 DTC” value turned out to be 56.23%. For the same compound, the Dmax in test [2] (setting [9]) was 92%.

Consider `CCc1ccc2c(P(C)(C)=O)c(Nc3nc(Nc4cc(C)c(N5CCC(N6CCN(CCc7ccc8c(c7)oc(=O)n8C7CCC(=O)NC7=O)CC6)CC5)cc4OC4CC4)ncc3Br)ccc2n1` (stereo not shown) [Example 568, 3-(6-(2-(4-(1-(4-((5-bromo-4-((5-(dimethylphosphoryl)-2-ethylquinolin-6-yl)amino)pyrimidin-2-yl)amino)-5-cyclopropoxy-2-methylphenyl)piperidin-4-yl)piperazin-1-yl)ethyl)-2-oxobenzo[d]oxazol-3(2H)-yl)piperidine-2,6-dione], for which the DC50 is 2.38 nM in test [1] (setting [8]) and 10.4 nM in test [2] (setting [7]). The “Dmax (%) H1975 # 28 DTC” value in test [1] (setting [3]) is recorded as 91.62%. Further, the Dmax in test [2] (setting [9]) amounted to 87%.

`[2H]C1([2H])CC([2H])(c2c(F)cc(CCN3CCN(C4CCN(c5cc(OCC)c(Nc6ncc(Br)c(Nc7ccc8nc(C)ccc8c7P(C)(C)=O)n6)cc5CC)CC4)CC3)cc2F)C(=O)NC1=O` (stereo not shown) [Example 570, 3-(4-(2-(4-(1-(4-((5-bromo-4-((5-(dimethylphosphoryl)-2-methylquinolin-6-yl)amino)pyrimidin-2-yl)amino)-5-ethoxy-2-ethylphenyl)piperidin-4-yl)piperazin-1-yl)ethyl)-2,6-difluorophenyl)piperidine-2,6-dione-3,5,5-d3]: the DC50 in test [1] (setting [8]) was found to be 3.03 nM; in test [2] (setting [7]) it was 20.5 nM. Further, the “Dmax (%) H1975 # 28 DTC” value in test [1] (setting [3]) is 76.54%.

For `CCc1cc(Nc2ncc(Br)c(Nc3ccc4c(=O)n(C5CC5)ncc4c3P(C)(C)=O)n2)c(OC)cc1N1CCC(N2CCN(CCC3CCN(c4cc(F)c([C@H]5CCC(=O)NC5=O)c(F)c4)CC3)CC2)CC1` [Example 578, (R)-3-(4-(4-(2-(4-(1-(4-((5-bromo-4-((2-cyclopropyl-5-(dimethylphosphoryl)-1-oxo-1,2-dihydrophthalazin-6-yl)amino)pyrimidin-2-yl)amino)-2-ethyl-5-methoxyphenyl)piperidin-4-yl)piperazin-1-yl)ethyl)piperidin-1-yl)-2,6-difluorophenyl)piperidine-2,6-dione], the DC50 in test [1] (setting [8]) worked out at 3.11 nM; in test [2] (setting [7]), 12.2 nM. Besides, in test [1] (setting [3]), the “Dmax (%) H1975 # 28 DTC” value came out at 87.5%. For the same compound, the Dmax in test [2] (setting [9]) is 96.5%.

In the case of `CCOc1cc(N2CCC(N3CCN(CC4CCN(c5cccc6c5oc(=O)n6C5CCC(=O)NC5=O)CC4)CC3)CC2)c(CC)cc1Nc1ncc(Br)c(Nc2ccc3nc(CC)ccc3c2P(C)(C)=O)n1` (stereo not shown) [Example 581, 3-(7-(4-((4-(1-(4-((5-bromo-4-((5-(dimethylphosphoryl)-2-ethylquinolin-6-yl)amino)pyrimidin-2-yl)amino)-5-ethoxy-2-ethylphenyl)piperidin-4-yl)piperazin-1-yl)methyl)piperidin-1-yl)-2-oxobenzo[d]oxazol-3(2H)-yl)piperidine-2,6-dione], the DC50 in test [1] (setting [8]) was found to be 1.36 nM; in test [2] (setting [7]) it was 6.9 nM. For the same compound, the “Dmax (%) H1975 # 28 DTC” value in test [1] (setting [3]) is given as 72.5%. For the same compound, the Dmax in test [2] (setting [9]) amounted to 88.5%.

In the case of `CCOc1cc(N2CCC(N3CCN(CC4CCN(c5cccc6c5oc(=O)n6C5CCC(=O)NC5=O)CC4)CC3)CC2)c(CC)cc1Nc1ncc(Br)c(Nc2ccc3c(=O)n(CC)ncc3c2P(C)(C)=O)n1` (stereo not shown) [Example 582, 3-(7-(4-((4-(1-(4-((5-bromo-4-((5-(dimethylphosphoryl)-2-ethyl-1-oxo-1,2-dihydrophthalazin-6-yl)amino)pyrimidin-2-yl)amino)-5-ethoxy-2-ethylphenyl)piperidin-4-yl)piperazin-1-yl)methyl)piperidin-1-yl)-2-oxobenzo[d]oxazol-3(2H)-yl)piperidine-2,6-dione], the figures for the DC50 in test [1] (setting [8]) and in test [2] (setting [7]) were 1.06 nM and 8.54 nM, respectively. In test [1] (setting [3]), the “Dmax (%) H1975 # 28 DTC” value amounted to 79.64%. Further, the greatest degradation seen (Dmax) in test [2] (setting [9]) turned out to be 93.1%.

`CCc1ccc2c(P(C)(C)=O)c(Nc3nc(Nc4cc(CC)c(N5CCC(N6CCC(CCc7cc(F)c(C8CCC(=O)NC8=O)c(F)c7)CC6)CC5)cc4OC)ncc3Br)ccc2n1` (stereo not shown) [Example 583, 3-(4-(2-(1′-(4-((5-bromo-4-((5-(dimethylphosphoryl)-2-ethylquinolin-6-yl)amino)pyrimidin-2-yl)amino)-2-ethyl-5-methoxyphenyl)-[1,4′-bipiperidin]-4-yl)ethyl)-2,6-difluorophenyl)piperidine-2,6-dione]: the DC50 amounted to 2.7 nM in test [1] (setting [8]) and 17 nM in test [2] (setting [7]). In test [1] (setting [3]), the “Dmax (%) H1975 # 28 DTC” value is listed as 76.91%. The Dmax in test [2] (setting [9]) came to 92.9%.

For `CCc1ccc2c(P(C)(C)=O)c(Nc3nc(Nc4cc(CC)c(N5CCC(N6CCN(CCc7cccc8c7n(C)c(=O)n8C7CCC(=O)NC7=O)CC6)CC5)cc4OC4CC4)ncc3Br)ccc2n1` (stereo not shown) [Example 585, 3-(4-(2-(4-(1-(4-((5-bromo-4-((5-(dimethylphosphoryl)-2-ethylquinolin-6-yl)amino)pyrimidin-2-yl)amino)-5-cyclopropoxy-2-ethylphenyl)piperidin-4-yl)piperazin-1-yl)ethyl)-3-methyl-2-oxo-2,3-dihydro-1H-benzo[d]imidazol-1-yl)piperidine-2,6-dione], the DC50 worked out at 0.695 nM in test [1] (setting [8]) and 2.5 nM in test [2] (setting [7]). Besides, the “Dmax (%) H1975 # 28 DTC” value in test [1] (setting [3]) was 79.08%. The Dmax in test [2] (setting [9]) came to 96.2%.

Consider `CCc1cc(Nc2ncc(Br)c(Nc3ccc4cc(C)ncc4c3P(C)(C)=O)n2)c(OC)cc1N1CCC(N2CCN(C(=O)[C@@H]3CCN(c4cc(F)c([C@H]5CCC(=O)NC5=O)c(F)c4)C3)CC2)CC1` [Example 586, (R)-3-(4-((R)-3-(4-(1-(4-((5-bromo-4-((8-(dimethylphosphoryl)-3-methylisoquinolin-7-yl)amino)pyrimidin-2-yl)amino)-2-ethyl-5-methoxyphenyl)piperidin-4-yl)piperazine-1-carbonyl)pyrrolidin-1-yl)-2,6-difluorophenyl)piperidine-2,6-dione], for which the values for the DC50 in test [1] (setting [8]) and in test [2] (setting [7]) were 0.958 nM and 3.85 nM, respectively. For the same compound, the “Dmax (%) H1975 # 28 DTC” value in test [1] (setting [3]) is given as 84.73%. Also, the Dmax in test [2] (setting [9]) was 94.1%.

Values taken from patent publication US20230265116A1, “DEGRADATION OF (EGFR) BY CONJUGATION OF EGFR INHIBITORS WITH E3 LIGASE LIGAND AND METHODS OF USE” (BEIGENE, LTD., priority 2020, published 2023).
